Assays:
[1] = system: adjuvant-induced arthritis (AIA) model in rats; test: adjuvant-induced arthritis (AIA) model in rats, left hind paw edema volume; assay type: in vivo, rat; conditions: incadronate 1 mg/kg s.c. once a day from day 14; day 35 after adjuvant; vs AIA control group
Experimental: (§1) In Example 5, 6-week-old male Lewis rats (SPF, Charles River Laboratories Japan, Inc.) were employed. The adjuvant was prepared by suspending heat-killed Mycobacterium butyricum (product of DIFCO) in liquid paraffin (product of Wako Pure Chemical Industries, Ltd.) at a concentration of 6 mg/mL. The adjuvant was subcutaneously administered to each of the rats in the right hind paw (0.3 mg/paw) without anesthesia. Fourteen days after administration, the rats were divided into 4 groups. To a non-treated normal control group, only liquid paraffin was administered to the rats in a similar manner. From the timing of the grouping, incadronate (Bisphonal (registered trademark) injection (10 mg), product of Astellas Pharma Inc.) was subcutaneously administered to the rats every day (once a day) at a dose of 1 mg/kg to the day before the day of sacrifice. […] The edema volume of the left hind paw was measured by means of a volumetric apparatus (TK-101CMP, product of UNICOM). […] The plasma KS level (non-treated control group, AIA control group, and incadronate-administered group) was determined on day 35 after administration of the adjuvant, by means of a conventional KS assay kit (5D4 assay system) and through the KS assay system of the present invention. […]

[2] = adjuvant-induced arthritis (AIA) model in rats, plasma KS level; assay type: in vivo, rat; conditions: incadronate 1 mg/kg s.c. once a day from day 14; day 35 after adjuvant; BCD-4/MK-172 assay; vs AIA control group
Experimental: as §1

With O=P(O)(O)C(NC1CCCCCC1)P(=O)(O)O [incadronate] the left paw volume [1] was “reduced as compared with the AIA control group” and the “plasma KS level” value [2] was “reduced as compared with the AIA control group”.

From patent US8822229B2, “Method for assaying keratan sulfate, assay kit therefor and method for detecting joint disease by using the same” (Seikagaku Corporation, priority 2008, dated 2014)
